Read-outs that look alike come from different tables or passages of the source.
Columns and labels:
[1] = test system: Aβ40 in conditioned medium of cells stably expressing Amyloid Precursor Protein (APP); experiment: In vitro BACE cell-based assay (Aβ40 in conditioned medium, sandwich ELISA); details: read-out: HEK cell assay
Outline: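 Step two: 10-point compound titration added, starting 100 μM or 10 μM, 0.1% DMSO. Step three: medium Aβ40 measured by ELISA, capture 3 h and detection 2 h at 4° C, TRF read.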

[2] = biological target: Beta Secretase enzyme (BACE) (Homo sapiens, UniProt P56817); experiment: In vitro enzymatic BACE FRET (fluorescence resonance energy transfer) assay; format: biochemical; details: average IC50, enzyme assay; read-out: BACE 1 FRET assay
Sequence of Beta Secretase enzyme (BACE) (P56817 46-501, species assumed): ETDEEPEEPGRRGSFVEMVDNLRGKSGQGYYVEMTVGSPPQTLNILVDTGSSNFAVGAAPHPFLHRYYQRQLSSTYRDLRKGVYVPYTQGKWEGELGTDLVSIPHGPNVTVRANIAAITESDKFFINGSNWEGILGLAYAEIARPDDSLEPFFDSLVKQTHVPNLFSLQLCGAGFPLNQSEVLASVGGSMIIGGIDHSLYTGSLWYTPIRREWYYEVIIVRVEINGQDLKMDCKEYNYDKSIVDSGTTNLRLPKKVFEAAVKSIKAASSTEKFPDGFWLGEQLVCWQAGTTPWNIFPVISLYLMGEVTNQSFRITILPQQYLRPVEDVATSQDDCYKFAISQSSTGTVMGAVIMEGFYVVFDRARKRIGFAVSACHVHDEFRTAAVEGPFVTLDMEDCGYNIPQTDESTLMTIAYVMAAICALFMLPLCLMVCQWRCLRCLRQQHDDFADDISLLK
Outline: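 Fluorescence read after Tris quench (pH raised to neutrality) of a one-hour BACE reaction. Buffer: acetate 0.05 M, pH 4.2, with 100 uM genapol and 10% DMSO final; started by adding 50 nM FRET peptide substrate spanning the cleavage site.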

[3] = Homo sapiens, HEK293, average IC50, HEK cells
[4] = Homo sapiens, HEK293, average IC50

COC(C)(C)C#Cc1cnc2c(c1)[C@]1(COC(N)=N1)c1cc(-c3cncnc3)c(F)cc1O2 [Example 643, (5S)-8-fluoro-3-(3-methoxy-3-methyl-1-butyn-1-yl)-7-(5-pyrimidinyl)spiro[chromeno[2,3-b]pyridine-5,4′-[1,3]oxazol]-2′-amine]
IC50 [1, 3]: 15 nM | IC50 [2]: 1.1 nM

NC1=N[C@@]2(CS1)c1cc(-c3cccnc3F)ccc1Oc1ncc(-c3ncccn3)cc12 [Example 728, (5S)-7-(2-fluoro-3-pyridinyl)-3-(2-pyrimidinyl)spiro[chromeno[2,3-b]pyridine-5,4′-[1,3]thiazol]-2′-amine]
IC50 [1, 4]: 80 nM | IC50 [2]: 3.5 nM

NC1=N[C@@]2(CO1)c1cc(C#CC3CC3)ccc1Oc1ncc(N3CCC(F)(F)CC3)cc12 [Example 181, (5S)-7-(cyclopropylethynyl)-3-(4,4-difluoro-1-piperidinyl)spiro[chromeno[2,3-b]pyridine-5,4′-[1,3]oxazol]-2′-amine]
IC50 [1, 4]: 27.1 nM | IC50 [2]: 5.7 nM

NC1=N[C@@]2(CO1)c1cc(-c3cccnc3F)ccc1Oc1c(F)cc(N3CCC(F)(F)C3)cc12 [Example 271, (4S)-2′-(3,3-difluoro-1-pyrrolidinyl)-4′-fluoro-7′-(2-fluoro-3-pyridinyl)spiro[1,3-oxazole-4,9′-xanthen]-2-amine]
IC50 [1, 4]: 4.1 nM | IC50 [2]: 0.5 nM

Cc1nc(F)ccc1-c1ccc2c(c1)[C@@]1(COC(N)=N1)c1cc(C3=CCOCC3)ncc1O2 [Example 251, (5S)-3-(3,6-dihydro-2H-pyran-4-yl)-7-(6-fluoro-2-methyl-3-pyridinyl)spiro[chromeno[2,3-c]pyridine-5,4′-[1,3]oxazol]-2′-amine]
IC50 [1, 4]: 271 nM | IC50 [2]: 26.8 nM

NC1=N[C@@]2(CO1)c1cc(-c3cccnc3)ccc1Oc1c2cc(-c2ccnc(F)c2)c(F)c1F [Example 1013, (4S)-3′,4′-difluoro-2′-(2-fluoro-4-pyridinyl)-7′-(3-pyridinyl)spiro[1,3-oxazole-4,9′-xanthen]-2-amine]
IC50 [1, 4]: 100 nM | IC50 [2]: 2.4 nM

Cc1cccc(Oc2ccc3c(c2)[C@@]2(COC(N)=N2)c2cc(C4=CCOCC4)cc(F)c2O3)n1 [Example 1063, (4S)-2′-(3,6-dihydro-2H-pyran-4-yl)-4′-fluoro-7′-((6-methyl-2-pyridinyl)oxy)spiro[1,3-oxazole-4,9′-xanthen]-2-amine]
IC50 [1, 4]: 751 nM | IC50 [2]: 33.7 nM

Cc1ncncc1-c1ccc2c(c1)[C@@]1(COC(N)=N1)c1cc(-c3ccnc(F)c3)ncc1O2 [Example 809, (5S)-3-(2-fluoro-4-pyridinyl)-7-(4-methyl-5-pyrimidinyl)spiro[chromeno[2,3-c]pyridine-5,4′-[1,3]oxazol]-2′-amine]
IC50 [1, 4]: 518 nM | IC50 [2]: 8.3 nM

CC1(COc2cc3c(cc2F)Oc2ccc(-c4cccc(C#N)c4)cc2[C@@]32COC(N)=N2)COC1 [Example 331, 3-((4S)-2-amino-6′-fluoro-7′-((3-methyl-3-oxetanyl)methoxy)spiro[1,3-oxazole-4,9′-xanthen]-2′-yl)benzonitrile]
IC50 [1, 4]: 85.5 nM | IC50 [2]: 13.9 nM

CC#Cc1cncc(-c2ccc3c(c2)[C@@]2(COC(N)=N2)c2cc(N4CCOCC4)cc(F)c2O3)c1 [Example 952, (4S)-4′-fluoro-2′-(4-morpholinyl)-7′-(5-(1-propyn-1-yl)-3-pyridinyl)spiro[1,3-oxazole-4,9′-xanthen]-2-amine]
IC50 [1, 3]: 4 nM | IC50 [2]: 0.6 nM

CC1(C)C=C(c2cnc3c(c2)[C@]2(CSC(N)=N2)c2cc(-c4ccc(F)c(C#N)c4)ccc2O3)CCO1 [Example 784, 5-((5S)-2′-amino-3-(6,6-dimethyl-3,6-dihydro-2H-pyran-4-yl)spiro[chromeno[2,3-b]pyridine-5,4′-[1,3]thiazol]-7-yl)-2-fluorobenzonitrile]
IC50 [1, 4]: 15 nM | IC50 [2]: 1.4 nM

CC1(C)C=C(c2cnc3c(c2)[C@@]2(COC(N)=N2)c2c(ccc(-c4cccnc4F)c2F)O3)CCO1 [Example 350, (5S)-3-(6,6-dimethyl-3,6-dihydro-2H-pyran-4-yl)-6-fluoro-7-(2-fluoro-3-pyridinyl)spiro[chromeno[2,3-b]pyridine-5,4′-[1,3]oxazol]-2′-amine]
IC50 [1, 4]: 685 nM | IC50 [2]: 530 nM

NC1=N[C@]2(CO1)c1cc(N3CCOCC3)ccc1Oc1cc(F)c(-c3cncnc3)cc12 [Example 335, (4S)-3′-fluoro-7′-(4-morpholinyl)-2′-(5-pyrimidinyl)spiro[1,3-oxazole-4,9′-xanthen]-2-amine]
IC50 [1, 4]: 43.3 nM | IC50 [2]: 16.4 nM

CC(C)(C)OCc1cnc2c(c1)[C@]1(COC(N)=N1)c1cc(-c3cccnc3F)c(F)cc1O2 [Example 716, (S)-3-(tert-butoxymethyl)-8-fluoro-7-(2-fluoropyridin-3-yl)-5′H-spiro[chromeno[2,3-b]pyridine-5,4′-oxazol]-2′-amine]
IC50 [1, 3]: 132 nM | IC50 [2]: 6.5 nM

COc1ccc(F)c(-c2ccc3c(c2)[C@@]2(COC(N)=N2)c2cc(N4CCOC(C)(C)C4)cnc2O3)c1 [Example 481, (5S)-3-(2,2-dimethyl-4-morpholinyl)-7-(2-fluoro-5-methoxyphenyl)spiro[chromeno[2,3-b]pyridine-5,4′-[1,3]oxazol]-2′-amine]
IC50 [1, 3]: 19.2 nM | IC50 [2]: 2.7 nM

NC1=N[C@@]2(CO1)c1cc(-c3c(F)ccnc3F)ccc1Oc1cnc([C@H]3CCCCO3)cc12 [Example 914, (5S)-7-(2,4-difluoro-3-pyridinyl)-3-((2R)-tetrahydro-2H-pyran-2-yl)spiro[chromeno[2,3-c]pyridine-5,4′-[1,3]oxazol]-2′-amine]
IC50 ([1]; average IC50, HEK cells): 102 nM | IC50 [2]: 13.5 nM

NC1=N[C@]2(CO1)c1cc(-c3cccnc3F)c(F)cc1Oc1c(F)cc(C3=CCCOC3)cc12 [Example 866, (4R)-7′-(5,6-dihydro-2H-pyran-3-yl)-3′,5′-difluoro-2′-(2-fluoro-3-pyridinyl)spiro[1,3-oxazole-4,9′-xanthen]-2-amine]
IC50 [1, 3]: 1720 nM | IC50 [2]: 62.3 nM

CC1(C)CC(c2cnc3c(c2)[C@]2(COC(N)=N2)c2c(ccc(-c4cncnc4)c2F)O3)=CCO1 [Example 353, (5R)-3-(2,2-dimethyl-3,6-dihydro-2H-pyran-4-yl)-6-fluoro-7-(5-pyrimidinyl)spiro[chromeno[2,3-b]pyridine-5,4′-[1,3]oxazol]-2′-amine]
IC50 [1, 4]: 15.8 nM | IC50 [2]: 1.2 nM

Cc1cc(-c2ccc3c(c2)[C@@]2(COC(N)=N2)c2cc(C4=CCOCC4)ncc2O3)cnc1F [Example 228, (5S)-3-(3,6-dihydro-2H-pyran-4-yl)-7-(6-fluoro-5-methyl-3-pyridinyl)spiro[chromeno[2,3-c]pyridine-5,4′-[1,3]oxazol]-2′-amine]
IC50 [1, 4]: 14 nM | IC50 [2]: 2.5 nM

NC1=N[C@@]2(CS1)c1cc(-c3cccnc3F)ccc1Oc1c2cc(-c2ccncc2)nc1F [Example 1027, (5S)-1-fluoro-7-(2-fluoro-3-pyridinyl)-3-(4-pyridinyl)spiro[chromeno[2,3-c]pyridine-5,4′-[1,3]thiazol]-2′-amine]
IC50 [1, 4]: 14 nM | IC50 [2]: 0.4 nM

COc1nc(F)cc2c1Oc1ccc(-c3cccnc3)cc1[C@]21COC(N)=N1 [Example 847, (5R)-3-fluoro-1-methoxy-7-(3-pyridinyl)spiro[chromeno[2,3-c]pyridine-5,4′-[1,3]oxazol]-2′-amine, (5S)-3-fluoro-1-methoxy-7-(3-pyridinyl)spiro[chromeno[2,3-c]pyridine-5,4′-[1,3]oxazol]-2′-amine]
IC50 [1]: 10 nM | IC50 [2]: 0.4 nM

CN1CCN(c2cc3c(cn2)Oc2ccc(-c4cccnc4F)cc2[C@@]32COC(N)=N2)CC1(C)C [Example 529, (5S)-7-(2-fluoro-3-pyridinyl)-3-(3,3,4-trimethyl-1-piperazinyl)spiro[chromeno[2,3-c]pyridine-5,4′-[1,3]oxazol]-2′-amine]
IC50 [1, 3]: 4.4 nM | IC50 [2]: 8.9 nM

CC(C)(C)COc1ccc2c(c1)[C@@]1(COC(N)=N1)c1cc(C3=CCOC(C)(C)C3)cnc1O2 [Example 504, (5S)-3-(2,2-dimethyl-3,6-dihydro-2H-pyran-4-yl)-7-(2,2-dimethylpropoxy)spiro[chromeno[2,3-b]pyridine-5,4′-[1,3]oxazol]-2′-amine]
IC50 [1, 3]: 29.7 nM | IC50 [2]: 7.6 nM

N#Cc1cccc(-c2ccc3c(c2)[C@@]2(COC(N)=N2)c2cc(N4CC[C@@H](F)C4)ncc2O3)c1 [Example 425, 3-((5S)-2′-amino-3-((3R)-3-fluoro-1-pyrrolidinyl)spiro[chromeno[2,3-c]pyridine-5,4′-[1,3]oxazol]-7-yl)benzonitrile]
IC50 [1, 3]: 4.8 nM | IC50 [2]: 0.8 nM

COC(C)(C)C#Cc1cnc2c(c1)[C@]1(COC(N)=N1)c1cc(-c3cncc(F)c3)c(F)cc1O2 [Example 641, (5S)-8-fluoro-7-(5-fluoro-3-pyridinyl)-3-(3-methoxy-3-methyl-1-butyn-1-yl)spiro[chromeno[2,3-b]pyridine-5,4′-[1,3]oxazol]-2′-amine]
IC50 [1, 3]: 13 nM | IC50 [2]: 0.9 nM

COc1ccnc(F)c1-c1ccc2c(c1)[C@@]1(COC(N)=N1)c1cc(C3=CCOCC3)ncc1O2 [Example 612, (5S)-3-(3,6-dihydro-2H-pyran-4-yl)-7-(2-fluoro-4-methoxy-3-pyridinyl)spiro[chromeno[2,3-c]pyridine-5,4′-[1,3]oxazol]-2′-amine]
IC50 [1, 3]: 3 nM | IC50 [2]: 0.6 nM

CC(C)(O)C#Cc1ccc2c(c1)[C@]1(COC(N)=N1)c1cc(-c3cncnc3)c(F)cc1O2 [Example 336, 4-((4R)-2-amino-6′-fluoro-7′-(5-pyrimidinyl)spiro[1,3-oxazole-4,9′-xanthen]-2′-yl)-2-methyl-3-butyn-2-ol]
IC50 [1, 4]: 19.3 nM | IC50 [2]: 6.4 nM

NC1=N[C@@]2(CO1)c1cc(-c3cccnc3F)ccc1Oc1cc(OC(F)(F)F)c(Br)cc12 [Example 989, (4S)-2′-bromo-7′-(2-fluoro-3-pyridinyl)-3′-(trifluoromethoxy)spiro[1,3-oxazole-4,9′-xanthen]-2-amine]
IC50 [1, 4]: ≥ 10000 nM | IC50 [2]: 2380 nM

— patent publication US8883782B2, “Spiro-tetracyclic ring compounds as beta-secretase modulators and methods of use” (Amgen Inc., priority 2010, dated 2014)
